From patent US11510980B2, “Brartemicin analogues” (VICTORIA LINK LTD, priority 2017, dated 2022)
Entries after “also recorded” stand apart in the source; their conditions may differ.

Assays:
wild-type GM-CSF BMDMs = experiment: Cytokine/chemokine production by wild-type GM-CSF BMDMs on ligand-coated plates; type: cell-based, C57BL/6 mice; conditions: wild-type BMDMs, coated plates 0.1 or 1 nmol/well, 24 hours, ELISA
Method: (§1) Preparation of ligand-coated plates: Brartemicin analogues 9a-9i, TDM (Carbosynth, Sigma Aldrich), and TDB^14 were dissolved in CHCl3:MeOH (2:1, 1 mM), diluted in isopropanol ([…]) and added to 96-well plates (20 μL/well). The solvents were evaporated and the coated plates were used immediately.
Murine bone-marrow derived macrophages: For the preparation of murine bone-marrow derived macrophages, bone marrow cells were collected from the tibias and femurs of C57BL/6 mice and cultured (250,000 cells/mL) in complete RPMI media [RPMI-1640 (Gibco) with 10% heat inactivated fetal bovine serum (Gibco), 100 unit/mL penicillin-streptomycin (Gibco) and 2 mM Glutamax (Gibco)] supplemented with 50 ng/mL GM-CSF (clone X63/GM-CSF murine cells). Cells were incubated at 37° C. (5% CO2) for 8 days (cells fed by replacing half the media on days 3 and 6). On day 8, all media was removed and the cells were washed with Dulbecco's Phosphate-Buffered Saline (DPBS, Gibco) to remove any loosely-adherent cells. The BMDMs were harvested with StemPro Acutase (1 mL/well, 15 minutes at room temperature, Gibco) and seeded onto a pre-coated 96-well plate. The supernatant was collected and analysed for cytokine/chemokine production after 24 hours.
(§2) Cytokine analysis: IL-1β, IFN-γ, IL-6, TNF-α (BD Biosciences), IL-17, and MIP-2 (R&D) levels were determined via sandwich ELISA according to the manufacturer's instructions.
First, the ability of the compounds to activate GM-CSF BMDMs was determined by monitoring the secretion of the inflammatory cytokines TNF, IL-6, and IL-1β and the chemokine, MIP-2, in a ligand-coated plate assay (FIG. 2).
To gain insight into the capacity of the 2G-series of brartemicin analogues to induce an inflammatory immune response, the analogues were then screened for their ability to activate WT and Mincle^−/− BMDMs, with cellular activation being determined by the measurement of IL-1B using ELISA (FIG. 6).

[1] = system: OT-II CD4+ T-cells co-cultured with GM-CSF BMDMs; experiment: BMDM / OT-II T-cell co-culture, OVA-specific IFN-γ and IL-17; type: cell-based, mice; conditions: 48 hours
Method: as §2
BMDC-OT-II T-cell co-cuture: A mixture of OT-II cells (1×10^5 cells/100 μL) and BMDCs (1×10^4 cells/100 μL) were stimulated with plate coated glycolipd (0.1 nmol/well) or iPrOH only (20 μL/well) and increasing concentrations of OVA (0, 0.1, or 1 μM). After 48 or 72 hours, the supernatant was collected and ELISA was employed to determine the levels of IFN-γ and IL-17.
To evaluate the potential of C18dMeBrar (9a) as a Th1/Th17 adjuvant, GM-CSF BMDMs and T-cells from OVA-specific OT-II TCR Tg mice were co-cultured on plates coated with TDM (0.01 nmol/well), TDB (0.01 nmol/well), or C18dMeBrar (9a, 0.01 nmol/well). The cells were stimulated with OVA (0, 0.1, and 1 μM), and after 48 hours, the supernatant was collected. Levels of the key Th1 cytokine IFN-γ, which is indicative of an enhanced host defence response, and the Th17 cytokine IL-17 were measured via ELISA (FIG. 3). […] Antigen-specific secretion of IFN-γ however, was not enhanced by treatment with 9a.

mMincle-Ig = molecular target: T1, mMincle-Ig (Mus musculus, UniProt Q9R0Q8); experiment: In vitro Mincle binding assay (ELISA) with mMincle-Ig fusion protein; set-up: species or system murine; conditions: plate-coated ligand 0.1 nmol/well
T1 construct: using soluble Mincle-Ig fusion-proteins; made in house
T1 sequence (Q9R0Q8 46-214 limits assumed): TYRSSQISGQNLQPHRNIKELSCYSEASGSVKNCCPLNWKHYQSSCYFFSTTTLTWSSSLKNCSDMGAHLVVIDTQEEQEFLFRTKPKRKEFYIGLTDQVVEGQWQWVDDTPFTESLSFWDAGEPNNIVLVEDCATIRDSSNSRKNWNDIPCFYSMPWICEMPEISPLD
Method: as §1
In vitro Mincle binding assay: The preparation of mMincle- and hMincle-Ig fusion proteins have been previously described. Plate-coated glycolipids 9a-i, TDB, and TDM were incubated with hMincle-Ig, mMincle-Ig, or hIgG1-Fc (Ig) [3 μg/mL in binding buffer (20 mM Tris-HCl, 150 mM NaCl, 1 mM CaCl2), 2 mM MgCl2, pH 7.0)]. Detection of bound protein was achieved via incubation with anti-hIgG-HRP followed by the addition of a colorimetric substrate and measurement of OD at 450 nm. Background was accounted for by subtracting the hIgG1-Fc OD450 values from fusion protein OD450 values
The synthesised brartemicin analogues prepared in Example 1 were first tested for their ability to bind to both human and murine Mincle in an enzyme-linked immunosorbent assay (ELISA) using soluble Mincle-Ig fusion-proteins (FIG. 1a).

hMincle+FcRγ = molecular target: T2, hMincle+FcRγ (Homo sapiens, UniProt Q9ULY5); experiment: 2B4-NFAT-GFP reporter cells expressing hMincle+FcRγ; type: cell-based; conditions: ligand-coated plates 0.01, 0.1 or 1 nmol/well, 18 hours
T2 construct: expressed in transfected cells; host or cells: 2B4-NFAT-GFP reporter cells
T2 sequence (Q9ULY5 1-219): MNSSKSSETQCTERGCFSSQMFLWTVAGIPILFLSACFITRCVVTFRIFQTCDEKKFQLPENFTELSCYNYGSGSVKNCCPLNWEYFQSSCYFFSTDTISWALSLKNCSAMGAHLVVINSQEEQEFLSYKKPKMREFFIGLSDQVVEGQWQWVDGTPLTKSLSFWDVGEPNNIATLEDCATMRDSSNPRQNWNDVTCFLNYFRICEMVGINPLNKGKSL
Method: as §1
2B4-NFAT-GFP reporter cells: 2B4-NFAT-GFP reporter cells expressing mMincle+FcRγ, hMincle+FcRγ, or FcRγ only have been previously described. […] The reporter cells were harvested, stained with propidium iodide, and analysed for NFAT-GFP expression using flow cytometry (FACS Calibur).
To determine whether the Mincle binding observed in Example 1 correlated with cellular activation, nuclear factor of activated T cells (NFAT)-green fluorescent protein (GFP) reporter cells expressing mMincle or hMincle coupled to FcRγ were stimulated using plates coated with TDM, TDB, brartemicin (9i), or analogues 9a-9h.
Activation of the reporter cells was measured through the production of GFP, which was monitored by flow cytometry (FIGS. 1b and 3c).
With the compounds 43a-h in hand, the ability of these analogues to bind and signal through Mincle was assessed (FIG. 5). Accordingly, NFAT-GFP reporter cells expressing mMincle+FcRγ, hMincle+FcRγ, or FcRγ-only were stimulated with the 2G-brartemicin analogues 43a-h, TDB, iPrOH, or the p-OC18H37 substituted analogue, 9f. Reporter cell activation was measured by the production of NFAT-GFP, which was analysed by flow cytometry.

[2] = 0.01 nmol/well, OVA 0, 0.1 and 1 μM, ELISA

Substance: 6,6′-Di-O-(2-hydroxy-4-octabenzyloxybenzoyl)-α,α′-D-trehalose [9a]
- IL-1β production (wild-type GM-CSF BMDMs): significant production
- IL-6 production (wild-type GM-CSF BMDMs): significant production
- MIP-2 production (wild-type GM-CSF BMDMs): significant production
- TNF production (wild-type GM-CSF BMDMs): significant production
- OVA-specific production of IL-17 [1, 2]: significantly augmented
- antigen-specific secretion of IFN-γ [1, 2]: not enhanced
- adjuvant activity in vitro ([1]; 0.1 nmol/well, OVA323-339 peptide 0, 0.1 and 1 μM): displays adjuvant activity in vitro
- binding to mMincle-Ig (ELISA, OD at 450 nm) (mMincle-Ig): good binding
- activation of hMincle NFAT-GFP reporter cells (GFP by flow cytometry) (hMincle+FcRγ): strongly activated; also recorded: best able to activate hMincle
